Laboratory results reported in patent publication US11370779B2, “Pharmaceutical composition for preventing or treating acute myeloid leukemia or metastatic breast cancer” (PELEMED CO., LTD., priority 2017, dated 2022).
Where two headings read alike, the source gives them in different places.

Assays:
FLT3 kinase = FLT3 kinase (Homo sapiens (Human), UniProt P36888); test: In vitro FLT3 kinase HTRF assay (Example 2); format: biochemical; conditions: FLT3 vs JAK2, JAK3, cMET, IRAK4
Experimental: Inhibition of the FLT3 kinase activity was measured using homogeneous, time-resolved fluorescence (HTRF) assays. Recombinant proteins containing the FLT3 kinase domain were purchased from Carna biosciences (Japan). Optimal enzyme, ATP, and substrate concentrations were established using the HTRF KinEASE kit (Cisbio, France) according to the manufacturer's instructions. The FLT3 enzymes were mixed in sequence with diluted compounds and peptide substrates in a kinase reaction buffer (50 mM HEPES (pH 7.0), 500 μM ATP, 0.1 mM sodium orthovanadate, 5 mM MgCl2, 1 mM DTT, 0.01% bovine serum albumin (BSA), and 0.02% NaN3). After the addition of the reagents for detection, the TR-FRET signal was measured using a Victor multilabel reader (Perkin Elmer, Waltham, Mass., USA). […] JAK2, JAK3, cMET, and RET in vitro kinase assays were also performed using the HTRF assay.

MV4;11 xenograft = test: MV4;11 mouse tumor xenograft, intravenous LDD1937; format: in vivo
Experimental: The drug or the control PBS was injected daily for a duration of 21 days.

MV4;11 cells = test: Cell viability, EZ-Cytox tetrazolium assay, MV4;11; format: cell-based, human
Experimental: The cultured cells were incubated at 3° C. with 5% CO2.
(§1) Cell viability was assessed by a tetrazolium-based assay using the EZ-Cytox Cell Viability Assay kit (DaeilLab, Korea). Briefly, 2,000 to 15,000 cells were plated in 96-well plates in 100 μl of medium. The next day, the cells were treated with compounds together with dimethyl sulfoxide (DMSO) as a negative control. Three days (72 hours) after the drug addition, 15 μl of the EZ-Cytox kit reagent was added to each well of the 96-well plate and then incubated at 37° C. in a humidified CO2 incubator for 4 hours. After incubation, the optical density (OD) was measured at a wavelength of 450 nm using a Victor multilabel reader (Perkin Elmer, Waltham, Mass., USA).

PC-3 cells = test: Cytotoxicity assay, PC-3; format: cell-based; conditions: Homo sapiens, mean ± S.D.
Experimental: MDA-MB-231 (metastatic breast cancer, ATCC HTB-26), Jurkat (human acute T lymphocytic leukemia, ATCC TIB-152), and K-562 (human chronic myelogenous leukemia, ATCC CCL-243) cells were cultured in RPMI-1640 (Sigma Co.). MCF7 (human breast adenocarcinoma, ATCC HTB-22) and PC-3 (human prostate adenocarcinoma, ATCC CRL-1435) cells were cultured in DMEM (Sigma Co.) medium supplemented with 10% fetal bovine serum and 1% penicillin/streptomycin. The cultured cells were incubated at […] with 5% CO2. Cell viability was assessed by a tetrazolium-based assay using the EZ-Cytox Cell Viability Assay kit (DaeilLab, Korea). […] The next day, the cells were treated with compounds together with dimethyl sulfoxide (DMSO) as a negative control. Three days (72 hours) after the drug addition, 15 μl of the EZ-Cytox kit reagent was added to each well of the 96-well plate and then incubated at 37° C. in a humidified CO2 incubator for 4 hours. After incubation, the optical density (OD) was measured at a wavelength of 450 nm using a Victor multilabel reader (Perkin Elmer, Waltham, Mass., USA). The IC50 was calculated by nonlinear regression using Prism version 5.01 (GraphPad, La Jolla, Calif., USA).

cMET = cMET (Homo sapiens (Human), UniProt P08581); test: cMET in vitro kinase HTRF assay; format: biochemical; conditions: mean ± S.D.
Experimental: Inhibition of the FLT3 kinase activity was measured using homogeneous, time-resolved fluorescence (HTRF) assays. Recombinant proteins containing the FLT3 kinase domain were purchased from Carna biosciences (Japan). Optimal enzyme, ATP, and substrate concentrations were established using the HTRF KinEASE kit (Cisbio, France) according to the manufacturer's instructions. The FLT3 enzymes were mixed in sequence with diluted compounds and peptide substrates in a kinase reaction buffer (50 mM HEPES (pH 7.0), 500 μM ATP, 0.1 mM sodium orthovanadate, 5 mM MgCl2, 1 mM DTT, 0.01% bovine serum albumin (BSA), and 0.02% NaN3). After the addition of the reagents for detection, the TR-FRET signal was measured using a Victor multilabel reader (Perkin Elmer, Waltham, Mass., USA). The IC50 was calculated by nonlinear regression using Prism version 5.01 (GraphPad). JAK2, JAK3, cMET, and RET in vitro kinase assays were also performed using the HTRF assay.

PC3 (prostate cancer) = test: WST anti-proliferative assay, PC3; format: cell-based; conditions: Homo sapiens, read-out: % inhibition at 1 μM, PC3
Experimental: (§2) (Table 6) Compound 33 (LDD-2635) was tested at 8 concentrations to measure their anti-proliferative effects on various human cancer cell lines using WST assay. The GI50 values were obtained in triplicate and the error bars represent the standard error of the mean.

MOLM14 Wild type = test: Cell proliferation MTT assay, MOLM14 wild type; format: cell-based; conditions: Homo sapiens, MOLM-14
Source text: (§3) MOLM14 were purchased from the ATCC and the cells were maintained in RPMI medium (Hyclone) with 10% Fetal bovine serum (Gibco) and 1% penicillin/streptomycin.

HCT-116 (colon cancer) = test: WST anti-proliferative assay, HCT-116; format: cell-based; conditions: Homo sapiens, HCT-116, read-out: % inhibition at 1 μM, HCT-116
Experimental: as §2

[1] = test system: MOLM14 FLT3-ITD (MOLM14-ITD); test: Cell proliferation MTT assay, MOLM14-ITD; format: cell-based; conditions: Homo sapiens, MOLM-14
Experimental: as §3
Viral particles were infected to MOLM14 cells and 48 h after infection, infected cells were selected with puromycin (1 μg/mL).

MV4-11 cells = test: Cytotoxicity WST assay, MV4-11 (Example 3); format: cell-based, human; conditions: for GI50: Homo sapiens, MV4-11, WST assay
Experimental: Test 96-well plates were incubated at 37° C. with 5% CO2 for 72 h. After 72 h incubation, 10 μL of the EZ-Cytox kit reagent from EZ-cytox Cell viability assay kit (DaeilLab, Korea) were added to each well of the 96-well plate and then incubated at 37° C. with 5% CO2 for 3 h. […] The IC50 values were calculated with nonlinear regression analysis using OriginPro 9.1 software (OriginLab, Northampton, Mass.). […] The GI50 values were obtained in triplicate and the error bars represent the standard error of the mean.

MOLM14 FLT3-ITD-D835Y = test: Cell proliferation MTT assay, MOLM14-ITD-D835Y; format: cell-based, human; conditions: Homo sapiens, MOLM-14
Experimental: as §3
Mutagenesis is performed in FLT3-ITD MSCV plasmid using Q5 site-directed mutagenesis kit (E05545). […] Retroviral particles were produced by transiently transfecting HEK293T cells with Retroviral vectors together with packaging vectors, GPE and VSVG. 48 h after transfection, media containing viral particles were collected and filtered for infection. Viral particles were infected to MOLM14 cells and 48 h after infection, infected cells were selected with puromycin (1 μg/mL).

HepG2 (liver cancer) = test: WST anti-proliferative assay, HepG2; format: cell-based; conditions: Homo sapiens
Experimental: as §2

MV4-11 xenograft = test: MV4-11 mouse tumor xenograft, oral administration
Experimental: The drug or the control PBS was administered daily for a duration of 21 days. Tumor sizes were measured twice a week for 21 days, and the tumor volumes were calculated with the following formula: V (volume)=X (length)×D (width)2/2. After 21 days, the mice were sacrificed, and the tumor weights were measured.
An in vivo MV4-11 xenograft study was performed to determine the efficacy of the indirubin derivatives. MV4-11 cells were subcutaneously injected into BALB/c nu/nu mice, and tumors were allowed to grow to a size of approximately 100 mm^3.

MDA-MB-231 = test: Cell viability, EZ-Cytox tetrazolium assay, MDA-MB-231; format: cell-based, human; conditions: Homo sapiens, MDA-MB-231; 72 hours
Experimental: MDA-MB-231 (metastatic breast cancer, ATCC HTB-26), Jurkat (human acute T lymphocytic leukemia, ATCC TIB-152), and K-562 (human chronic myelogenous leukemia, ATCC CCL-243) cells were cultured in RPMI-1640 (Sigma Co.). MCF7 (human breast adenocarcinoma, ATCC HTB-22) and PC-3 (human prostate adenocarcinoma, ATCC CRL-1435) cells were cultured in DMEM (Sigma Co.) medium supplemented with 10% fetal bovine serum and 1% penicillin/streptomycin. The cultured cells were incubated at 3° C. with 5% CO2.
as §1, with “USA). The IC50 was calculated by nonlinear regression using Prism version 5.01 (GraphPad, La Jolla, Calif., USA).” for “USA).”

MDA-MB-231 xenograft = test: MDA-MB-231 mouse tumor xenograft; format: in vivo; conditions: 20 mg/kg/p.o/day, 4 weeks
Experimental: 6-weeks-old Balb/c nu/nu mice (female) were purchased from Central Lab. Animal Inc. to be used. […] The candidate substances LDD-2614 (Compound 21), 2633 (Compound 28), 2634 (Compound 34), 2635 (Compound 33) were administered at 20 mg/kg/p.o/day, and doxorubicin, which was a control, was administered at 5 mg/kg/i.p (once a week) for 4 weeks.

SK-OV-3 (ovarian cancer) = test: WST anti-proliferative assay, SK-OV-3; format: cell-based; conditions: Homo sapiens, SK-OV-3, read-out: % inhibition at 1 μM, SK-OV-3
Experimental: as §2

A549 (lung cancer) = test: WST anti-proliferative assay, A549; format: cell-based; conditions: Homo sapiens, A549, read-out: % inhibition at 1 μM, A549
Experimental: as §2

[2] = Homo sapiens, MV4-11, 72 hours, read-out: GI50(nM) MV4;11

cMET, sequence (P08581 25-1390): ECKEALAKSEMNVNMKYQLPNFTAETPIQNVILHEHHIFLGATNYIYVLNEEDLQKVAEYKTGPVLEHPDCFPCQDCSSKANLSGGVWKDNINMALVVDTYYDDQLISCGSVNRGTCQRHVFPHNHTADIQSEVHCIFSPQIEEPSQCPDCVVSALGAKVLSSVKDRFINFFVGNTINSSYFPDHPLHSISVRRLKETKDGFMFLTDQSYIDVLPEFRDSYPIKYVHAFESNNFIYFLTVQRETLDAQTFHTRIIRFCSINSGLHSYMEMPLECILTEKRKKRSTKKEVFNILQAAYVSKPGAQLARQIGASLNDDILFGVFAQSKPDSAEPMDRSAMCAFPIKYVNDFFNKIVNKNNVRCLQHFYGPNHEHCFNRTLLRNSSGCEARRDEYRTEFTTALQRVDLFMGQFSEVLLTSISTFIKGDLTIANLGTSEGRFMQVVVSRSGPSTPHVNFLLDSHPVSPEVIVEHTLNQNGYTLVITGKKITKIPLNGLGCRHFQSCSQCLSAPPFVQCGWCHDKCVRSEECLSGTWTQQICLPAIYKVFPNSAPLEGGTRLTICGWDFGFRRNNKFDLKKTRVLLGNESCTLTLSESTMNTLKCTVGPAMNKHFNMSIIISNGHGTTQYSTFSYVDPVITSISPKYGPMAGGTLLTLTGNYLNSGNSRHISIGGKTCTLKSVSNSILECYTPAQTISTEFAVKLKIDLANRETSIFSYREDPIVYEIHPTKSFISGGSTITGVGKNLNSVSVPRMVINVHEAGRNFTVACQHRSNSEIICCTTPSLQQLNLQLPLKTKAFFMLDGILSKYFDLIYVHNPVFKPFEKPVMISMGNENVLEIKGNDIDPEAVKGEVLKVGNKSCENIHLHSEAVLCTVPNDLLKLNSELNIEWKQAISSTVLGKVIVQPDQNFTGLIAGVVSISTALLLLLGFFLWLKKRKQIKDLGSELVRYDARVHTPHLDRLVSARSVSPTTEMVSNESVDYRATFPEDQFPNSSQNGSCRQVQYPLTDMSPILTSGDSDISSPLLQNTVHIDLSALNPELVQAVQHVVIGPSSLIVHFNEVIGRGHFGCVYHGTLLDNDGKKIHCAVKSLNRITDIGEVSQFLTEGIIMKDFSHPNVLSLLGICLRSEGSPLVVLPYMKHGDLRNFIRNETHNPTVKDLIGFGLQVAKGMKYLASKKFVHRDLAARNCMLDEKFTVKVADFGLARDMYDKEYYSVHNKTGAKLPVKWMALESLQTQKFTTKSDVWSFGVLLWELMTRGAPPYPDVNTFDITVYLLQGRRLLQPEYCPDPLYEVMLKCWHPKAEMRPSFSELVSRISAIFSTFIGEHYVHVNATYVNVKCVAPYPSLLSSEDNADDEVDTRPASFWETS
FLT3 kinase, sequence (P36888 610-943): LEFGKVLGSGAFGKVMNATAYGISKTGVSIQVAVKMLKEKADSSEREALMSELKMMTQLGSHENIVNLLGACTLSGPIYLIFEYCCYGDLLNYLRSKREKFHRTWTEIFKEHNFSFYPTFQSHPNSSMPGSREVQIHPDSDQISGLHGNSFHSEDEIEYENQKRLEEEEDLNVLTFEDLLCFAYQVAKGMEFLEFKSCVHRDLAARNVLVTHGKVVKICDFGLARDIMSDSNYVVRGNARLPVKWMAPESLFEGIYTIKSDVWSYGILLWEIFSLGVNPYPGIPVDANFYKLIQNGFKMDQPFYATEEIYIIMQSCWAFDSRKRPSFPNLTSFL

COC(=O)c1ccc2c(c1)/C(=C1/Nc3ccccc3/C1=N\OCCN1CCNCC1)C(=O)N2.Cl.Cl [Compound 4, Methyl (2Z,3E)-2′-oxo-3-((2-(piperazin-1-yl)ethoxy)imino)-[2,3′-biindolinylidene]-5′-carboxylate dihydrochloride]
difference in the IC50 between FLT3 and other kinases (FLT3 kinase): ≥ 170 fold | day from which the tumor disappeared (MV4;11 xenograft; 10 mg/kg i.v. daily, based on measured tumor volume): 3 days | body weight during the administration period (MV4;11 xenograft; 5 or 10 mg/kg i.v., 21 days, between groups): no significant difference in body weight | increase of activity against MV4;11 compared to Compound 1 (MV4;11 cells): 40 fold | GI50 (MV4;11 cells; [2]): 1 nM | IC50 (MV4;11 cells; Homo sapiens, MV4-11, Table 1, 72 hours): 1 nM | GI50 (MV4;11 cells; Homo sapiens, MV4-11, Table 4, mean ± S.D., read-out: GI50 (μM) MV-4-11): 1.2 ± 0.15 nM | GI50 (PC-3 cells): 1.1 ± 0.14 µM | IC50 (cMET): 0.25 ± 0.074 µM

Cl.Cl.O=C1Nc2ccc(F)cc2/C1=C1/Nc2ccccc2/C1=N\OCCN1CCNCC1 [Compound 33, (2Z,3E)-5′-fluoro-3-((2-(piperazin-1-yl)ethoxy)imino)-[2,3′-biindolinylidene]-2′-one dihydrochloride]
inhibition at 1 µM (PC3 (prostate cancer)): 40.7% | GI50 (MOLM14 Wild type): 4.88 nM | inhibition at 1 µM (HCT-116 (colon cancer)): 38.5% | GI50 [1]: 1.85 nM | times more sensitive against MV4-11 cells than K562 cell line (MV4-11 cells): 430 times | GI50 (MV4-11 cells; Table 6, read-out: GI50 value (μM) MV4-11): 0.001 ± 0.0003 µM | GI50 (MV4-11 cells; read-out: GI50 MV4-11 cells): 0.001 µM | GI50 (MOLM14 FLT3-ITD-D835Y): 1.87 nM | GI50 (HepG2 (liver cancer)): 1.1 ± 0.2 µM | weight loss or other signs of toxicity during the administration period (MV4-11 xenograft; 20 mg/kg oral once daily for 21 days): no weight loss or any other signs of toxicity | day by which the tumor disappeared (MV4-11 xenograft; 20 mg/kg oral once daily, based on measured tumor volume): ≤ 14 days | GI50 (MV4;11 cells; [2]): 1 nM | GI50 (MDA-MB-231): 117 nM | weights of the liver and the kidney (MDA-MB-231 xenograft): no significant difference | inhibition at 1 µM (SK-OV-3 (ovarian cancer)): 16% | inhibition at 1 µM (A549 (lung cancer)): 2.05%
